Assay: Body weight measurement in rat STZ-induced diabetes model
Format: in vivo
Conditions: 20 mg/kg oral, mean ± SE, in g (unit assumed)
Method: Compound 9 (50 mg/mL) was diluted with water for injection to obtain a 1 mg/mL administration specimen. For the specimens to be administered at 0.1 mg/mL and 0.01 mg/mL, the specimen to be administered at 1 mg/mL was diluted stepwise with water for injection. Each administration specimen was divided into PP disposable tubes every day and stored in a storehouse (freezer: MDF-MU339H-PJ, PHC Corporation) under the condition of freezing (−30° C. to −20° C., measured value: −26.4 to −24.5° C.). Preparation was performed on the day before the start of administration.
Water for injection was added to and dissolved in Pregabalin taken out from the capsule to obtain 2 mg/mL. It was prepared before use.
• Animal species: rat (SPF) • Strain: Crl: CD (SD) • Date of animal acquisition, gender, age in weeks, number of animals acquired, and weight range after 1 day of acquisition • First and second courses: Apr. 6, 2022, male, 7 weeks old, 35 animals, 217 to 237 g • Third and fourth courses: Apr. 13, 2022, male, 7 weeks old, 35 animals, 216 to 235 g • Source: […].
• Dose volume: calculated at 2 mL/kg based on the body weight on the day of administration. • Number of times of administration: once • Day of administration: 7 days before the day of starting administration of the test substance.
• Dose volume: calculated at 1 mL/kg based on the body weight on the day of administration. • Number of times of administration: 9 times • Interval of administration: once every 3 days (evaluation was performed on the day after administration) • Day of starting administration: day 8 of STZ administration (day of STZ administration is counted as day 1).
• Dose volume: calculated at 10 mL/kg based on the body weight on the day of administration. • Number of times of administration: Administration was performed once on the day of evaluation of neuropathic pain, twice in total, and on the other days of administration, a vehicle for a control substance (water for injection) was orally administered.
• Measurement was performed every day after the day of STZ administration.
The mean and standard error of each group were calculated for the 50% withdrawal threshold, body weight, and blood glucose level.
The body weight was an integer.
No significant difference test of body weight and blood glucose levels was performed.

Compound: CC(C)C[C@H](CN)CC(=O)O [Pregabalin, reference compound]
- Body weight (day 1 of STZ administration): 293 ± 5
- Body weight (day 2 of STZ administration): 278 ± 5
- Body weight (day 3 of STZ administration): 272 ± 5
- Body weight (day 4 of STZ administration): 275 ± 4
- Body weight (day 5 of STZ administration): 280 ± 4
- Body weight (day 6 of STZ administration): 282 ± 4
- Body weight (day 7 of STZ administration): 288 ± 4
- Body weight (day 8 of STZ administration): 285 ± 4
- Body weight (day 9 of STZ administration): 289 ± 4
- Body weight (day 10 of STZ administration): 291 ± 5
- Body weight (day 11 of STZ administration): 297 ± 4
- Body weight (day 12 of STZ administration): 297 ± 5
- Body weight (day 13 of STZ administration): 298 ± 5
- Body weight (day 14 of STZ administration): 302 ± 6
- Body weight (day 15 of STZ administration): 297 ± 4
- Body weight (day 16 of STZ administration): 300 ± 5
- Body weight (day 17 of STZ administration): 304 ± 5
- Body weight (day 18 of STZ administration): 303 ± 5
- Body weight (day 19 of STZ administration): 302 ± 6
- Body weight (day 20 of STZ administration): 308 ± 5
- Body weight (day 21 of STZ administration): 305 ± 6
- Body weight (day 22 of STZ administration): 309 ± 5
- Body weight (day 23 of STZ administration): 307 ± 7
- Body weight (day 24 of STZ administration): 305 ± 7
- Body weight (day 25 of STZ administration): 307 ± 6
- Body weight (day 26 of STZ administration): 309 ± 6
- Body weight (day 27 of STZ administration): 304 ± 7
- Body weight (day 28 of STZ administration): 307 ± 7
- Body weight (day 29 of STZ administration): 302 ± 7
- Body weight (day 30 of STZ administration): 302 ± 7
- Body weight (day 31 of STZ administration): 304 ± 8
- Body weight (day 32 of STZ administration): 305 ± 8
- Body weight (day 33 of STZ administration): 307 ± 8
- Body weight (day 34 of STZ administration): 306 ± 7
- Body weight (day 35 of STZ administration): 307 ± 7
